Like-named read-outs stand apart in the source and are kept apart here.
Tests used:
[1] = system: histidine-requiring salmonell typhimurrium mutants TA 97, TA 98, Ta 100 and TA 102; settings: +S9, 2-AF 10 μg/plate
Method: That was a parallel test between two groups of plates with or without the mixture of S9.
Each course was to be performed twice for three plates of different concentrations. Positive indicators and solvent control were included within all courses. Courses were performed with a ‘pre-incubation’ method, and the final result comes out in average from total six values.

[2] = system: Chinese hamaster lung fibroblast (CHL) cells; type: cell-based
Method: TGP, was dissolved in methyl-sulfoxide.
With method of Ishidate (1981), cells were collected in 24 and 48 hours for S9− groups and 24 hours for S9+. All assays were performed twice and their average was taken for final results.

[3] = system: Sprage-Dawley (SD) rats, adjuvant arthritis; test: Adjuvant arthritis in rats (FCA): secondary inflammation, non-injected foot, thymus, pathology; type: in vivo
[4] = system: Wistar rats, Model of Arthritis (BCG vaccine); test: Primary inflammation: degree of swelling of injected feet, BCG vaccine arthritis model; type: in vivo
Method: (§1) Animal: Wistar rats, 2-3 months, 180±30 g.
(§2) Chemical agents: Paeoniflorin R1, Lobenzarit disodium (CCA), Indomethacin (IM), and BCG vaccine
(§3) Model of Arthritis: inject 0.1 ml of 10 mg BCG vaccine to the right hind foot, bottom side, intracutaneously.
Primary inflammation: Degree of swelling of injected feet (primary inflammation): oral treatment was given 30 minutes before the inflammatory injection (BCG vaccine). The degree of swelling was measured 1, 3, 5, and 7 days after the injection.
Oral administration of Paeoniflorin R1 30˜60 minutes before inflammatory injection.
TGP's influence on degree of swelling of injected feet (primary inflammation)

[5] = system: Wistar rats, Model of Arthritis (BCG vaccine); test: Secondary inflammation: swelling of opposite non-injected feet and thymus weight, BCG vaccine arthritis model; type: in vivo; settings: for Degree of Swelling Day 12 / Degree of Swelling Day 16 / Degree of Swelling Day 20 / Degree of Swelling Day 24 / Degree of Swelling Day 28: non-injected feet
Method: as §1, §2, §3
Secondary inflammation: Swelling degree of the opposite non-injected feet (secondary inflammation): oral treatment was given 12-28 days after the inflammatory injection. The degree of swelling was measured 12, 16, 20, 24 and 28 days after the injection.
Groups of animals for secondary inflammation: 6 groups, each contains 6 rats, groups are: 1) Normal control, receive no inflammatory injection and any pre treatment; 2) Negative control, receive inflammatory injection and no treatment; 3) Positive control, receive inflammatory injection and CCA treatment; 4) Paeoniflorin R1 groups (5, 25, 50 mg/kg/d) oral administration of Paeoniflorin R1 30˜60 minutes before inflammatory injection.
TGP's influence on degree of swelling of opposite, non-injected feet (secondary inflammation)

[6] = system: Sprage-Dawley (SD) rats, adjuvant arthritis; test: Adjuvant arthritis in rats (FCA): primary inflammation, injected foot; type: in vivo
[7] = system: abdominal cavity macrophage; test: Kinemics of abdominal cavity macrophage PGE2 release in arthritis rats (Paeoniflorin R1); type: in vivo; settings: treatment from 1st day after inflammatory injection, sacrificed day 7, 14, 21, 28; FIG. 46
Excerpt: Kinemics in Abdominal Cavity Macrophage Release PGE2
Paeoniflorin R1 treatment started the 1st day after inflammatory injection, animal sacrificed on day 7, 14, 21, and 28.

[8] = system: pregnant Wistar rats; test: Test of teratogenesis in pregnant rats; type: in vivo; settings: 250 mg/kg
Method: Ninety pregnant Wistar rats were numbered by their date of fertilization and randomly divided into five groups. The other two were for the control groups.
A positive and a negative control groups were also set up, rats were given acetosalicylic acid (250 mg/kg) in the positive group and distilled water of the same volume in the negative group.
The positive control group was treated with the acetosalicylic acid from day 9 to 11. Both were by gastric injection.
The body weight of rats in all groups was taken once every three days, and the amount of drugs were adjusted individually after the body weight. Rats were killed at day 20 of pregnancy, wombs and embryos were extracted by cesarean section, which was for the study and examination in a traditional way.

[9] = system: mice, IgM in the spleen cells; test: Enhanced IgM formation of mice induced by cyclophosphamide (spleen cell transfer); type: in vivo; settings: group C: donor mice SOI + Cy + solvent, Cy 100 mg/kg i.p.
Excerpt: See table 49 and table 50 for grouping and test procedures: spleen cells of donor mice are transferred to acceptor mice. And, SRBC (4×10^8/mouse i.p.) are given to the acceptor mice for additional immune enhancement. Acceptors are killed on the fifth day of transference and examined for the quantity of IgM in the spleen cells.

[10] = system: ICR mice; test: Enhanced delayed type hypersensitivity (DTH) reaction of mice induced by cyclophosphamide; type: in vivo; settings: Cy + Solvent, Cy 250 mg/kg i.p. at d-3
Method: Cyclophosphamide was administered 3 days before (d-3) the first day sensitization (enhanced DTH model).

[11] = system: mice, IgM in the spleen cells; test: Weakened IgM formation of mice induced by cyclophosphamide; type: in vivo; settings: Cy + solvent, Cy 125 mg/kg i.p. at d-3
Method: All groups of mice were sensitized with 0.2 ml 10% SRBC suspension i.p., mice were also administered 125 mg/kg of cyclophosphamide 3 days before the sensitization to make up the models of weakened immunoreactions. […] The mice were killed on the fifth day, organs of spleens and thymus were weighted and quantity of IgM in the spleen cells examined.

[12] = system: abdominal cavity macrophage; test: H2O2, IL-1 and PGE2 produced by abdominal cavity macrophage of arthritis rats (Paeoniflorin R1); type: in vivo; settings: 25 mg/kg from 7 days after inflammatory injection, sacrificed day 17; FIG. 44
Method: Amount of H2O2, IL-1, and PGE2 produced by abdominal cavity macrophage: Use 5 rats in each group, paeoniflorin R1 (25 mg/kg) treatment starts 7 days after inflammatory injection, animal sacrificed on day 17.

[13] = system: sub-group T cell in peripheral circulation; test: Sub-group T cell (Th/Ts) in peripheral circulation of arthritis rats (Paeoniflorin R1); type: in vivo; settings: 25 mg/kg from 18 days after inflammatory injection, sacrificed day 26; P<0.01; FIG. 45
Method: Sub-Group T Cell in Peripheral Circulation
Paeoniflorin R1 treatment (25 mg/kg) started at 18 days after inflammatory injection, animal sacrificed on day 26.

[14] = system: synovial cells; test: IL-1, TNF and PGE2 produced by synovial cells of arthritis rats (Paeoniflorin R1); type: in vivo; settings: 25 mg/kg from 12 days after inflammatory injection, sacrificed day 22; P<0.01
Method: IL-1, TNF, and PGE2 Produced by Synovial Cells
Paeoniflorin R1 treatment (25 mg/kg) started at 12 days after inflammatory injection, animal sacrificed on day 22.

[15] = system: ICR mice; settings: CTX 80 mg/kg
Method: ICR mice of sexual maturity, all males. Six random groups with eight mice in each one.
With a gradient of 4:1, the four concentrations were set at 2500 mg/kg, 625 mg/kg, […] and 39 mg/kg.
The drug was administered by gastric injection at the above doses together with the positive indicator (Cytoxan) and the solvent control. The course was repeated after 24 hours and animals were killed six hours after the second administration. Samples were taken and examined.

[16] = S9+, CP (60.0 μg/ml, 24, by row order of Table 43)

Compound: Nc1ccc2c(c1)Cc1ccccc1-2 [2-AF]
- reverting colonies, AT 97 [1]: 598 ± 27.4
- reverting colonies, AT 98 [1]: 974 ± 30.7
- reverting colonies, AT 100 [1]: 772 ± 29.8

Compound: CO[C@@]12[C@H](COC(N)=O)C3=C(C(=O)C(C)=C(N)C3=O)N1C[C@@H]1N[C@@H]12 [MMC, Mitomycin C]
- Deformation (types) [2]: g, b, p, t, f
- Deformation Rate [2]: 79.5%

Compound: O=C(O)c1ccccc1Nc1cc(Cl)ccc1C(=O)O [CCA, Lobenzarit disodium]
- weight of thymus ([3]; AA rats, gastric infusion d12 through d20): the weight of their thymus are gained
- joint swelling ([3]; AA rats, gastric infusion d12 through d20, all three doses of TGP, one dose CCA): certain improvements in joint swelling
- weight of thymus ([3]; CCA 50 mg/kgd): 14.3 ± 3.9
- Degree of Swelling, non-injected foot ([3]; d20, CCA 50 mg/kgd): 0.41 ± 0.22 mL
- Degree of Swelling, non-injected foot ([3]; d24, CCA 50 mg/kgd): 0.14 ± 0.15 mL
- Degree of Swelling, non-injected foot ([3]; d28, CCA 50 mg/kgd): 0.05 ± 0.02 mL
- Degree of Swelling Day 1 ([4]; 50 mg/kg/d oral): 0.65
- Degree of Swelling Day 3 ([4]; 50 mg/kg/d oral): 0.96
- Degree of Swelling Day 5 ([4]; 50 mg/kg/d oral): 0.68
- Degree of Swelling Day 7 ([4]; 50 mg/kg/d oral): 0.65
- W. of Thymus Glands ([5]; 50 mg/kg/d oral): 14.4 mg/kg body W.
- Degree of Swelling Day 12 ([5]; 50 mg/kg/d oral): 0.40
- Degree of Swelling Day 16 ([5]; 50 mg/kg/d oral): 0.55
- Degree of Swelling Day 20 ([5]; 50 mg/kg/d oral): 0.42
- Degree of Swelling Day 24 ([5]; 50 mg/kg/d oral): 0.14
- Degree of Swelling Day 28 ([5]; 50 mg/kg/d oral): 0.05
- Degree of swelling, injected foot ([6]; d3, CCA 50 mg/kgd): 0.94 ± 0.17
- Degree of swelling, injected foot ([6]; d5, CCA 50 mg/kgd): 0.67 ± 0.18
- Degree of swelling, injected foot ([6]; d7, CCA 50 mg/kgd): 0.63 ± 0.18

Compound: COc1ccc2c(c1)c(CC(=O)O)c(C)n2C(=O)c1ccc(Cl)cc1 [IM, Indomethacin]
- Degree of Swelling Day 1 ([4]; 2 mg/kg/d oral): 0.52
- Degree of Swelling Day 3 ([4]; 2 mg/kg/d oral): 0.57
- Degree of Swelling Day 5 ([4]; 2 mg/kg/d oral): 0.34
- Degree of Swelling Day 7 ([4]; 2 mg/kg/d oral): 0.30
- abdominal cavity macrophage PGE2 release [7]: effective in PGE2 release

Compound: CC(=O)Oc1ccccc1C(=O)O [acetosalicylic acid]
- malformation in appearance (harelip, split tongue, short body, abnormal limbs) [8]: 4.4%
- deformity rate in skeletal system ([8]; P<0.01): 69.5%
- growth of embryo rats vs negative control ([8]; P<0.01 and P<0.05): showed differences in the body weight and length of embryos
- absorptive embryo rate, dead embryo rate, survival rate vs negative control ([8]; day 9 to 11, P<0.01): much higher absorptive embryo rate, and dead embryo rate, and lower survival rate

Compound: O=P1(N(CCCl)CCCl)NCCCO1 (centres unmarked) [CP, Cyclophosphamide]
- Result of chromosome aberration test ([2]; CP (15 μg/ml, 48, by row order of Table 43)): + +
- Result of chromosome aberration test ([2]; CP (60.0 μg/ml, 24, by row order of Table 43)): + +
- Deformation (types) [2, 16]: g, p, b, r, t, f
- Deformation Rate [2, 16]: 44.0%
- Deformation Rate ([2]; S9−, CP 15 μg/ml, incubation 48): 34.5%
- Ig M (A), acceptor mice [9]: 0.53 ± 0.03^ΔΔ
- Rate of inhibition [9]: 24.3
- Degree of ear swelling [10]: 28.1 ± 7.2
- Quantity of Ig M (A value) [11]: 0.41 ± 0.10
- Weight of Spleen [11]: 56.6 +11.5
- weight of thymus [11]: 6.2 ± 4.7

Compound: 2-hydroxy-3 Methyl-Glucoside-4-Oxo-7-Carbonyl-Tricyclo [3,2,2,0^1,2]-Nonanyl-Benzoicmethoxycarbonyl [Paeoniflorin R1]
- Degree of Swelling Day 1 ([4]; 25 mg/kg/d oral): 0.59
- Degree of Swelling Day 3 ([4]; 25 mg/kg/d oral): 0.81
- Degree of Swelling Day 5 ([4]; 25 mg/kg/d oral): 0.50
- Degree of Swelling Day 7 ([4]; 25 mg/kg/d oral): 0.40
- W. of Thymus Glands ([5]; 5 mg/kg/d oral): 16.3 mg/kg body W.
- W. of Thymus Glands ([5]; 25 mg/kg/d oral): 19.4 mg/kg body W.
- W. of Thymus Glands ([5]; 50 mg/kg/d oral): 13.9 mg/kg body W.
- Degree of Swelling Day 12 ([5]; 5 mg/kg/d oral): 0.35
- Degree of Swelling Day 16 ([5]; 5 mg/kg/d oral): 0.42
- Degree of Swelling Day 20 ([5]; 5 mg/kg/d oral): 0.33
- Degree of Swelling Day 24 ([5]; 5 mg/kg/d oral): 0.25
- Degree of Swelling Day 28 ([5]; 5 mg/kg/d oral): 0.26
- Degree of Swelling Day 12 ([5]; 25 mg/kg/d oral): 0.41±
- Degree of Swelling Day 16 ([5]; 25 mg/kg/d oral): 0.39
- Degree of Swelling Day 20 ([5]; 25 mg/kg/d oral): 0.20
- Degree of Swelling Day 24 ([5]; 25 mg/kg/d oral): 0.15
- Degree of Swelling Day 28 ([5]; 25 mg/kg/d oral): 0.23
- Degree of Swelling Day 12 ([5]; 50 mg/kg/d oral): 0.40
- Degree of Swelling Day 16 ([5]; 50 mg/kg/d oral): 0.39
- Degree of Swelling Day 20 ([5]; 50 mg/kg/d oral): 0.30
- Degree of Swelling Day 24 ([5]; 50 mg/kg/d oral): 0.27
- Degree of Swelling Day 28 ([5]; 50 mg/kg/d oral): 0.24
- Amount of H2O2, IL-1, and PGE2 produced by abdominal cavity macrophage [12]: can decrease the above reaction
- Th/Ts in peripheral circulation [13]: can improve Th/Ts
- IL-1, TNF, and PGE2 produced by synovial cells (result worded as Th/Ts) [14]: can improve Th/Ts
- abdominal cavity macrophage PGE2 release [7]: effective in PGE2 release

Compound: O=P1(N(CCCl)CCCl)NCCCO1 (centres unmarked) [CTX, Cytoxan]
- MPCE % ± SD [15]: 41.37 ± 10.29%

— US20030232102A1, “Total glycosides of paeony, method to prepare the same and uses thereof” (priority 2001, published 2003)
